The test system of data set [1] is Escherichia coli. Put plainly: Antibiotic combination growth assay (384-well checkerboard, OD600).
Data set [2] has as its system MRSA. As to conditions: Rajamuthiah et al. (2014, 2015); cited from earlier work.
The subject of data set [3] is Pseudomonas aeruginosa. Put plainly: Antibiotic combination growth assay (384-well checkerboard, OD600).
The subject of data set [4] is Klebsiella pneumoniae. As to conditions: Rajamuthiah et al. (2015), compound alone; cited from earlier work.
Data set [5] concerns Enterococcus faecium. Conditions: Rajamuthiah et al. (2015); cited from earlier work.
Data set [6] concerns Pseudomonas aeruginosa. Conditions: Rajamuthiah et al. (2015), compound alone; cited from earlier work.
In data set [7] the test system is Acinetobacter baumannii. As to conditions: Rajamuthiah et al. (2015), compound alone; cited from earlier work.
For data set [8], the system named is Enterobacter aerogenes. As to conditions: Rajamuthiah et al. (2015), compound alone; cited from earlier work.
For data set [9], the system named is M. tuberculosis. As to conditions: de Carvalho et al. (2011); cited from earlier work.
Data set [10] concerns Gram negative bacteria. Conditions: in combination with an efflux pump inhibitor (e.g. TolC efflux pump inhibitor); PCT/NZ2015/050192; cited from earlier work.
The subject of data set [11] is Acinetobacter baumannii. Put plainly: Antibiotic combination growth assay (384-well checkerboard, OD600). Conditions: in conjunction with a polymyxin (polymyxin B or polymyxin E (colistin)); ATCC type strain 19606; FIGS. 37-40.
Data set [12] has as its system methicillin-resistant Staphylococcus aureus (MRSA). Conditions: Lau et al. (2015), under the assay conditions used; cited from earlier work.
For data set [13], the system named is Enterobacter cloacae. Put plainly: Antibiotic combination growth assay (384-well checkerboard, OD600). Conditions: in conjunction with a polymyxin (polymyxin B or polymyxin E (colistin)); subsp. cloacae ATCC 13047; FIGS. 29-32.
The subject of data set [14] is E. coli strain 7KO:roGFP. As to the kind of experiment: Real-time measurement of intrabacterial redox potential (roGFP).
Experimental: (§1) Cells were fixed with N-ethylmaleimide at various time points post niclosamide incubation, and then passed through a flow cytometry system. The ImageStream recorded each individual cell and all images were processed automatically.
In vivo analysis of the intrabacterial redox potential was performed at 30° C. in a Synergy H1 Multimode plate reader (BioTek) with excitation measured at 405 and 480 nm and emission measured at 510 nm. Log phase bacterial cultures of 7KO:roGFP or 7KOΔtolC:roGFP were resuspended in 0.9% saline at OD 1.0, and 100 μL aliquots were loaded in individual wells of a black, clear-bottom 96-well plate. Background signals from the non-fluorescent (i.e., without pRSETB-RoGFP2) corresponding strain were obtained in the same experiment. Fluorescence signals were followed for 160-180 min, and the resulting 405/480 ratio signals were calculated. […] Reduced and oxidized controls were obtained within each experiment using a final concentration of 10 mM H2O2 or 1 mM DTT respectively.
Samples were analyzed by the AMNIS ImageStream as previously described (van der Heijden et al. (2015) Proc Natl Acad Sci USA 112, 560-565). The laser intensities for 405, 488, 658, and 785 nm were 100, 120, 20, and 3.8, respectively. The data files were further analyzed using IDEAS software, version 6.0.129.0, which is supplied by AMNIS. Bacterial cells were selected based on fluorescence at 660 nm. Every image of an infected cell was then selected by the program based on fluorescent intensity at 660 nm. Based on this selection, a mask was created that was used for analysis of the 405/480 nm ratio. The resulting 405/480 ratio signals were plotted in a histogram. Reduced and oxidized controls were obtained within each experiment, and all values were normalized to oxidized and reduced ratio values.
In vivo analysis of the intrabacterial redox potential was done at 30° C. in a Synergy H1 Multimode plate reader (BioTek) with excitation at 405 and 480 nm while emission was measured at 510 nm. Log phase bacterial cultures were resuspended in 0.9% saline at OD 1.0, and 200 μL per well were loaded in a black, clear-bottom 96-well plate. Background signals from the nonfluorescent corresponding strain were obtained in the same experiment.
The subject of data set [15] is E. coli strain 7KOΔtolC:roGFP. The description is as above. Conditions: niclosamide alone in strain with in-frame deletion of tolC; FIG. 59.
Experimental: as §1
In vivo analysis of the intrabacterial redox potential was performed at 30° C. in a Synergy H1 Multimode plate reader (BioTek) with excitation measured at 405 and 480 nm and emission measured at 510 nm. Log phase bacterial cultures of 7KO:roGFP or 7KOΔtolC:roGFP were resuspended in 0.9% saline at OD 1.0, and 100 μL aliquots were loaded in individual wells of a black, clear-bottom 96-well plate. Background signals from the non-fluorescent (i.e., without pRSETB-RoGFP2) corresponding strain were obtained in the same experiment. Fluorescence signals were followed for 160-180 min, and the resulting 405/480 ratio signals were calculated. […]
Samples were analyzed by the AMNIS ImageStream as previously described (van der Heijden et al. (2015) Proc Natl Acad Sci USA 112, 560-565). […] The data files were further analyzed using IDEAS software, version 6.0.129.0, which is supplied by AMNIS. Bacterial cells were selected based on fluorescence at 660 nm. […]
In vivo analysis of the intrabacterial redox potential was done at 30° C. in a Synergy H1 Multimode plate reader (BioTek) with excitation at 405 and 480 nm while emission was measured at 510 nm. […]
The subject of data set [16] is P. aeruginosa. As to conditions: Imperi et al. (2013), FIG. 2A there; cited from earlier work.
Data set [17] has as its system Klebsiella pneumoniae. As to the kind of experiment: Antibiotic combination growth assay (384-well checkerboard, OD600). Conditions: in conjunction with a polymyxin (polymyxin B or polymyxin E (colistin)); antibiotic-resistant and laboratory strains; FIGS. 21-28.
The test system of data set [18] is Mycobacterium tuberculosis. As to conditions: cited from earlier work.
In data set [19] the test system is Salmonella enterica. As to the kind of experiment: Antibiotic combination growth assay (384-well checkerboard, OD600). In kind it is cell-based. As to conditions: in conjunction with a polymyxin (polymyxin B or polymyxin E (colistin)); Serovar Typhimurium (SL1344); FIGS. 33-36.
Data set [20] deals with quorum sensing system in Pseudomonas aeruginosa. As to conditions: among FDA-approved drugs tested, Imperi et al. (2013); cited from earlier work.
Data set [21] deals with macrophages. As to conditions: cited from earlier work.

“Also recorded” adds a separate entry of the source.

With `O=[N+]([O-])c1ccc(O)c([N+](=O)[O-])c1` [2,4-dinitrophenol], the “synergistic effect in combination with colistin” value in [1] (with colistin, E. coli MG1655, FIGS. 45, 46, 53-58) is “only weak synergistic effect”.

For `Cc1cc(C(C#N)c2ccc(Cl)cc2)c(Cl)cc1NC(=O)c1cc(I)cc(I)c1O` (stereo not drawn) [closantel, N-[5-Chloro-4-[(4-chlorophenyl)-cyanomethyl]-2-methylphenyl]-2-hydroxy-3,5-diiodobenzamide], in [2], the “toxicity / activity against MRSA” value was “active”.

With Gramicidin, the “growth inhibition effect of the combination” value in data set [1] (gramicidin with niclosamide, E. coli laboratory strain W3110, FIGS. 41-42) is on record as “synergistic growth inhibition effect”; in data set [3] (gramicidin with niclosamide, antibiotic-resistant clinical isolate (NZ isolate AR 00/537), FIGS. 43-44), “synergistic growth inhibition effect”.

For `O=C(Nc1cc(Cl)cc(Cl)c1O)c1c(O)c(Cl)cc(Cl)c1Cl` [oxyclozanide, 2,3,5-trichloro-N-(3,5-dichloro-2-hydroxyphenyl)-6-hydroxybenzamide], the inhibition of growth result in data set [4], in data set [6], in data set [7] and in [8] was “neither niclosamide nor oxyclozanide were active” each time. In addition, the “toxicity to Enterococcus faecium” value in data set [5] is on record as “directly toxic”. Moreover, in data set [2], the “toxicity / activity against MRSA” value is “directly toxic”.

Take `CC(=O)Oc1ccccc1C(=O)Nc1ncc([N+](=O)[O-])s1` [nitazoxanide, 2-acetyloxy-N-(5-nitro 2-thiazolyl)benzamide]: the “uncoupling of the membrane potential” value in data set [9] is “uncoupled the membrane potential”.

Turning to `O=C(Nc1ccc([N+](=O)[O-])cc1Cl)c1cc(Cl)ccc1O` [niclosamide, N-(2′-chloro-4′-nitrophenyl)-5-chlorosalicylamide], the “direct toxicity to Gram negative bacteria” value in [10] is given as “directly toxic”. Moreover, the inhibition of growth result in [4] was “neither niclosamide nor oxyclozanide were active”; in data set [6], “neither niclosamide nor oxyclozanide were active”; in data set [7], “neither niclosamide nor oxyclozanide were active”; in data set [16], “failed to inhibit the growth”; in [8] it was “neither niclosamide nor oxyclozanide were active”. Further, the “growth inhibition effect of the combination” value in [11] is listed as “synergistic growth inhibition effect”; in data set [13], “synergistic growth inhibition effect”; in data set [17], “synergistic growth inhibition effect”; in data set [1] (in conjunction with a polymyxin (polymyxin B or polymyxin E (colistin)), antibiotic-resistant and laboratory strains, FIGS. 1-12), “synergistic growth inhibition effect”; in data set [19], “synergistic growth inhibition effect”; in data set [3] (in conjunction with a polymyxin (polymyxin B or polymyxin E (colistin)), antibiotic-resistant and laboratory strains, FIGS. 13-20), “synergistic growth inhibition effect”. In data set [12], the minimum inhibitory concentration result is “sub-micromolar”. Also, the “toxicity to Enterococcus faecium” value in data set [5] was “directly toxic”. Also, the “intracellular redox stress (405/480 nm ratio)” value is reported as “irreversible increase in intracellular redox stress” in data set [14] (1 μM niclosamide in combination with 0.5 μM colistin, FIG. 60 C); “irreversible increase in intracellular redox stress” in [14] (1 μM niclosamide in combination with 0.5 μM polymyxin B, FIG. 60 D); “irreversible increase in intracellular redox stress” in data set [14] (1 μM niclosamide in combination with 25 μM PAβN (TolC efflux pump inhibitor), FIG. 60 B); “did not experience significant redox stress” in data set [14] (niclosamide alone, FIG. 59); “experienced increasing redox stress; also recorded: irreversible increase in intracellular redox stress” in [15]. Further, the “uncoupling of the membrane potential” value in data set [9] was “uncoupled the membrane potential”. Besides, in [18] (Sun and Zhang (1999)), the MIC (as a rule, the lowest concentration found to suppress growth) is 0.5 to 1.0 µg/mL. For the same compound, the “activity against non-replicating M. tuberculosis” value in [18] (grown in low oxygen conditions) is reported as “active”. For the same compound, the anti-quorum sensing activity entry in [20] is on record as “highest anti-quorum sensing activity”. Moreover, in [21], the toxicity against macrophages entry is listed as “did observe toxicity”. Further, the “toxicity / activity against MRSA” value in data set [2] is recorded as “directly toxic”.

The values are drawn from US20190274978A1, “ANTIBACTERIAL COMPOSITIONS” (priority 2016, published 2019).
